Laboratory results as given in patent US20080045796A1, “HISTOFLUORESCENT STAIN COMPOSITION FOR ENDOSCOPY” (PENTAX CORPORATION, priority 2006, published 2008).

What was measured:
[1] = Measurement of absorption spectrum and fluorescence excitation spectrum; assay type: physicochemical; conditions: for maximum absorption wavelength: 1.0 mg/ml, spectrophotometer 200 to 750 nm; for maximum excitation wavelength / maximum fluorescence wavelength: fluorescence spectrophotometer
Description: Measurement of an absorption spectrum and a fluorescence excitation spectrum of Fast Green FCF was performed. The Fast Green FCF (Wako Pure Chemical Industries, Ltd.) was adjusted to 1.0 mg/ml, and the light absorbance was continuously measured at a wavelength of from 200 to 750 nm using a spectrophotometer (manufactured by Shimadzu Corp., BioSpec-1600) to determine the wavelength at which the absorbance reached the maximum. The maximum absorption wavelength of 628 nm thus obtained was irradiated as an excitation wavelength, and the wavelength of the scattered light detected in the perpendicular direction to the light axis of the excitation light was measured using a fluorescence spectrophotometer (manufactured by Shimadzu Corp., RF-1500), thus to obtain a maximum excitation wavelength of 628 nm and a maximum fluorescence wavelength of 652 nm.

gastrointestinal lumen = test: Perfusion through the heart with Guinea Green, observation of a frozen section; assay type: in vivo, mouse; conditions: 10 mg/mL, 600 μL perfused through the heart
Description: The gastrointestinal lumen was stained using Guinea Green, and the stainability was examined by observation of a frozen section.
Guinea Green (Sigma-Aldrich Corp., Guinea Green B) was prepared to 10 mg/mL with physiological saline, and was perfused through the heart of a mouse (ddY, 6 weeks old, male) in an amount of 600 μL.
Also, it was compared with another frozen section used to perform HE staining, and the sites capable of fluorescent observation by Guinea Green staining were characterized.
(§1) A confocal microscope was used for the observation, which was made at 20, 40 or 63 magnifications.

[2] = tested on: esophagus part of a mouse; test: Extracted esophagus stained, confocal microscope observation; conditions: 10 mg/mL, pH 7
Description: The esophagus part of a mouse (ddY, 11 weeks old, male) was extracted, stained using Brilliant Blue FCF, and observed with a confocal microscope (Leica Microsystems Corp., TCP-SP2).
The Brilliant Blue FCF used was prepared to 10 mg/mL using a 0.1 M sodium phosphate buffer solution (pH 7).
The imaging conditions were such that the pinhole diameter was 1.00 airy, and a lens of 20 magnifications was used.

mouse large intestine = test: Tissue staining by perfusion method, confocal observation of extracted large intestine specimen; conditions: 1 mg/mL with physiological saline
Description: IndoCyanine Green (adjusted to 1 mg/mL with physiological saline), which is a medical contrast agent, was used to perform tissue staining. Mouse large intestine was stained by a perfusion method, and observation of an extracted specimen of the large intestine was performed using a confocal microscope (Leica Microsystems Corp., TCP-SP2).

large intestine = test: Perfusion through the heart with Patent Blue, confocal observation of large intestine specimen and frozen section; assay type: in vivo, mouse
Description: Patent Blue was used for staining and observation with a confocal microscope. Patent Blue (Sigma-Aldrich Corp., Patent Blue VF) was prepared to 10 mg/mL with physiological saline, and was perfused through the heart of a mouse (ddY, 6 weeks old, male) to perform staining.
The mouse was subjected to laparotomy to extract the large intestine, and an observation was made for a specimen with a confocal system.
The imaging conditions were such that a lens of 20 magnifications was used, and the pinhole diameter was 1.00 airy. As the confocal microscope, TCP-SP2 manufactured by Leica Microsystems Corp. was used.
A frozen section prepared by slicing the mouse large intestine stained in Example 9 to approximately 6 μm was observed under fluorescence to observe the stainability. An adjacent frozen section was used to perform HE staining and was compared to characterize the sites where fluorescent observation was possible by Patent Blue staining.
as §1

## CCN(Cc1cccc(S(=O)(=O)[O-])c1)c1ccc(C(=C2C=CC(=[N+](CC)Cc3cccc(S(=O)(=O)[O-])c3)C=C2)c2ccccc2)cc1.[Na+] [Guinea Green B]
[1]
  can be excited at, for example: 624 nm
  fluorescence detected at: 635 nm
  maximum absorption wavelength: 620 nm
  maximum excitation wavelength: 624 nm
  maximum fluorescence wavelength: 635 nm
Gastrointestinal lumen
  fluorescence of frozen section: the lumen side exhibited strong fluorescence
  observation capability of the confocal system: high

## CCN(Cc1cccc(S(=O)(=O)[O-])c1)c1ccc(C(=C2C=CC(=[N+](CC)Cc3cccc(S(=O)(=O)[O-])c3)C=C2)c2ccccc2S(=O)(=O)[O-])cc1.[Na+].[Na+] [Brilliant Blue FCF]
[1]
  can be excited at, for example: 629 nm
  fluorescence detected at: 650 nm
  maximum absorption wavelength: 629 nm
  maximum excitation wavelength: 619 nm
  maximum fluorescence wavelength: 650 nm
[2]
  fluorescent contrast in confocal images: provide fluorescent contrast for the intercellular space of the esophagus epithelial cells
[2]; images at every 5.0 μm
  depth from the luminal surface of clear images: up to 100 μm

## CC1(C)C(/C=C/C=C/C=C/C=C2\N(CCCCS(=O)(=O)O)c3ccc4ccccc4c3C2(C)C)=[N+](CCCCS(=O)(=O)[O-])c2ccc3ccccc3c21 [IndoCyanine Green, reference compound]
[1]; compared with Fast Green FCF, FIG. 2
  fluorescence intensity (fluorescence spectrum): the fluorescence intensity is lower than that of the Fast Green FCF
Mouse large intestine
  fluorescence intensity inside the tissue: the fluorescence intensity was very low

## CCN(Cc1cccc(S(=O)(=O)O)c1)c1ccc(C(=C2C=CC(=[N+](CC)Cc3cccc(S(=O)(=O)O)c3)C=C2)c2ccccc2S(=O)(=O)[O-])cc1.N.N [Alphazurine FG]
[1]
  can be excited at, for example: 633 nm
  fluorescence detected at: 643 nm
  maximum absorption wavelength: 630 nm
  maximum excitation wavelength: 633 nm
  maximum fluorescence wavelength: 643 nm

## CCN(Cc1cccc(S(=O)(=O)O)c1)c1ccc(C(=C2C=CC(=[N+](CC)Cc3cccc(S(=O)(=O)O)c3)C=C2)c2ccc(S(=O)(=O)O)cc2)cc1.[Na+].[Na+] [Light Green SF]
[1]
  can be excited at, for example: 633 nm
  fluorescence detected at: 652 nm
  maximum absorption wavelength: 635 nm
  maximum excitation wavelength: 633 nm
  maximum fluorescence wavelength: 652 nm

## Patent Blue VF
[1]
  can be excited at, for example: 641 nm
  fluorescence detected at: 654 nm
  maximum absorption wavelength: 639 nm
  maximum excitation wavelength: 641 nm
  maximum fluorescence wavelength: 654 nm
Large intestine; 10 mg/mL, 600 μL perfused through the heart
  staining visible by naked eyes: the limbs were bluish in color to the extent of being visible by naked eyes
Large intestine; approximately 6 μm frozen section
  fluorescence of frozen section: strong fluorescence in the lumen
Large intestine; area 60 μm deep from the luminal surface
  confocal observation of the tissue: the lamina propria mucosae could be observed clear
Large intestine; frozen section under fluorescence
  observation capability: high
